The structures appear in SMILES notation. Bounds are passed on as bounds.

The EC50 is the midpoint of the concentration-response curve. What is called AUC(0-t) is exposure summed from dosing to a finite time, without extrapolation to infinity. Read a low AUC(0-t) as low exposure. What is called bioavailability is dose-corrected exposure relative to a reference, in per cent.

Series [1] in a line: Cytotoxicity against human SK-BR-3 cells expressing wild type PI3Kalpha assessed as inhibition of cell proliferation measured after 72 hrs by CellTiter-Glo reagent based assay. It counts as toxicity. In general terms: ATP-based viability assays read luminescence as a measure of living cells.
For another series, the system named is T47D. The series can be described thus: Antiproliferative activity against human T47D cells expressing PI3Kalpha H1047R mutant assessed as inhibition of cell proliferation measured after 72 hrs by CellTiter-Glo reagent based assay. It counts as functional.
Series [2] can be described thus: AUC(last) in CD-1 mouse at 10 mg/kg, po by LC/MS/MS analysis. The series is classed as ADME, organism-based. Conditions: in vivo.
A short description of series [3]: Oral bioavailability in CD-1 mouse at 10 mg/kg by LC/MS/MS analysis. Conditions: in vivo. It counts as ADME, organism-based.

Regarding `Cc1cc(C(C)Nc2ccccc2C(=O)O)c2nc(N3CC[Si](C)(C)CC3)n(C)c(=O)c2c1` (stereo not drawn), the EC50 at 72 h in series [1] turned out to be 2000 nM. Also, the EC50 with T47D was 500 nM.

Regarding `CC(Nc1ccccc1C(=O)O)c1cc(Cl)cc2c(=O)n(C)c(N3CCN(CC(F)(F)F)CC3)nc12` (stereo not drawn), in series [1], the concentration for a half-maximal effect (EC50) at 72 h was over 15000 nM. Besides, in the series on T47D, the EC50 was 500 nM.

Turning to `CC(Nc1ccc(F)cc1C(=O)O)c1cc(F)cc2c(=O)n(C)c(N3CCN(CC(F)(F)F)CC3)nc12` (stereo not drawn), the EC50 at 72 h in series [1] was over 15000 nM. For the same compound, the EC50 with T47D worked out at 1 nM.

Consider `Cc1cc(C(C)Nc2ccccc2C(=O)O)c2nc(N3Cc4ccc(C#N)cc4C3)n(C)c(=O)c2c1` (stereo not drawn), for which the EC50 at 72 h in series [1] was over 15000 nM. In the series with T47D, the EC50 came to 1 nM.

Turning to `Cc1cc(C(C)Nc2ccc(F)cc2C(=O)O)c2nc(N3CCN(CC(F)(F)F)CC3)n(C)c(=O)c2c1` (stereo not drawn), in series [1], the EC50 at 72 h is 2000 nM. Also, the EC50 in the series on T47D worked out at 1 nM.

`Cc1cc(C(C)Nc2ccc(F)cc2C(=O)O)c2nc(N3CCC(C)(C)CC3)n(C)c(=O)c2c1` (stereo not drawn): the AUC(0-t) in series [2] came to 10700 ng·h/mL. Also, the bioavailability in series [3] was 61%. The EC50 at 72 h in series [1] is 2000 nM. Further, the EC50 with T47D was found to be 1 nM.

Turning to `Cc1cc(C(C)Nc2ccc(Cl)cc2C(=O)O)c2nc(N3Cc4ccc(F)cc4C3)n(C)c(=O)c2c1` (stereo not drawn), in series [1], the EC50 at 72 h was 2000 nM. Moreover, in the series with T47D, the EC50 stood at 1 nM.

In the case of `CC(Nc1ccccc1C(=O)O)c1cc(C(F)(F)F)cc2c(=O)n(C)c(N3CCN(CC(F)(F)F)CC3)nc12` (stereo not drawn), the EC50 at 72 h in series [1] came out at 2000 nM. In addition, the EC50 in the series on T47D amounted to 500 nM.

These data come from ChEMBL document CHEMBL5579870, “Integrating Neuroprotective and Anti-inflammatory Strategies in the Development of PI3K Inhibitors for Enhanced Cancer Therapy” (ACS Med Chem Lett, 2024).
